For this series, the system named is in vitro model of the blood brain barrier (brain capillary endothelial cells co-cultured with glial cells). Briefly: In vitro BBB model: passage of p97 tryptic digest peptides, LC-MS/MS peak areas in luminal and abluminal compartments. The format is in vitro ADME, rat. How it is done:
Experiments were performed to evaluate the passage of mixtures of p97 peptide fragments across the blood-brain barrier (BBB) using a relevant and predictive BBB in vitro model (see Cecchelli et al., Adv. Drug Deliv. Rev. 36:165-178, 1999). The model utilizes brain capillary endothelial cells co-cultured with glial cells, to closely mimic the in vivo BBB (see Lundquist et al., Pharm. Res. 16:976-981, 2002).
To provide an in vitro system for studying brain capillary functions, a process of co-culture that closely mimics the in vivo BBB was established by culturing brain capillary endothelial cells on one side of a filter and supportive glial cells on the other side. Specifically, endothelial cells were cultured in the upper compartment on the filter and glial cells in the lower compartment on the plastic of a six-wells plate (see FIGS. 7 and 8). Under these conditions, endothelial cells retain the appropriate endothelial markers (e.g., factor VIII—related antigen, non-thrombogenic surface, production of prostacyclin, angiotensin-converting enzyme activity), and also retain the relevant characteristics of the BBB (e.g., presence of tight junctions, paucity of pinocytotic vesicles, monoamine oxidase activity, γ-glutamyltranspeptidase activity, P-glycoprotein activity, specific receptors for low density lipoproteins, and transferrin).
After removing the meninges, the brain tissue was forced gently through a nylon sieve. DMEM (Dulbecco's modified Eagle medium) supplemented with 10% (v/v) fetal calf serum (FCS, same as Fetal Bovine Serum: FBS), 2 mM glutamine, and 50 μg·ml^−1 of gentamycin was used for the dissociation of cerebral tissue and development of glial cells. […]
The glial cells were plated at a concentration of about 1.25×10^5 cells/ml in plastic six-well plates and incubated at 37° C. with 5% CO2. The medium was changed twice a week. […] Then, sub-clones of endothelial cells frozen at passage 3 were cultured on a 60-mm-diameter gelatin-coated Petri dish. Confluent endothelial cells were trypsinized and plated on the upper side of the filters at a density of 4×10^5 cells/ml. The medium used for the co-culture was DMEM supplemented with 10% (v/v) calf serum (CS) and 10% (v/v) horse serum (HS), 2 mM glutamine, and 50 μg/ml of gentamycin, and 1 ng/ml of basic fibroblast growth factor was added every other day.
On the day of the experiments, Ringer-HEPES (NaCl, 150 mM; KCl, 5.2 mM; CaCl2, 2.2 mM; MgCl2 6H20, 0.2 mM; NaHCO3, 6 mM; HEPES, 5 mM; glucose, 2.8 mM) was added to the lower compartment (abluminal side) of a six-well plate (3 mL per well). Filters with or without endothelial cells were washed with the Ringer-HEPES solution for 10 minutes at 37° C. to minimize traces of serum, and were then transferred to each well of the six-well plate. A volume of 1 mL Ringer-HEPES solution containing the peptide fragments in combination with Lucifer Yellow (20 μM) was placed in the upper compartment (luminal side) of the well.
Experiments were performed in triplicate with filters containing a confluent monolayer of endothelial cells (for BBB integrity testing or evaluation of peptide fragment passage), or in triplicate with empty filters coated only with collagen (filter test). Incubations were performed on a rocking platform for 120 minutes at 37° C.

Where [1] appears, read: tryptic peptides, abluminal compartment, 120 minutes, 3 micron pore size, LC-MS/MS peak area.
Setting [2] is: tryptic peptides, abluminal compartment, 120 minutes, 4 micron pore size, LC-MS/MS peak area.
The mark [3] stands for this setting: tryptic peptides, luminal compartment, 120 minutes, 3 micron pore size, LC-MS/MS peak area.
The mark [4] stands for this setting: tryptic peptides, luminal compartment, 120 minutes, 4 micron pore size, LC-MS/MS peak area.
The mark [5] stands for this setting: tryptic peptides, abluminal/luminal peak area ratio at 120 minutes, 0.4 um insert.
Where [6] appears, read: tryptic peptides, abluminal/luminal peak area ratio at 120 minutes, 3.0 um insert.

Like-named read-outs stand apart in the source and are kept apart here.

As to “HSTVLENTDGK (listed as Homo sapiens) [tryptic peptide fragment of human p97]”, the “Ablum 120: Area” value is 0.00E+00.

For the substance “RSSHVTIDTLK (listed as Homo sapiens) [tryptic peptide fragment of human p97]”, the “Abl 120/Lum120 peak area ratio, 0.4 um insert” value was 2.06 and the “Abl 120/Lum120 peak area ratio, 3.0 um insert” value worked out at 1.23.

As for “CVGNSQERYYGYR (listed as Homo sapiens) [tryptic peptide fragment of human p97]”, the “Lum 120: Area” value worked out at 0.00E+00.

As to “LLNEGQR (listed as Homo sapiens) [tryptic peptide fragment of human p97]”, the “Ablum 120: Area” value was 0.00E+00.

In the case of “ADTDGGLIFR (listed as Homo sapiens) [tryptic peptide fragment of human p97]”, the “Abl 120/Lum120 peak area ratio, 0.4 um insert” value is 1.95 and the “Abl 120/Lum120 peak area ratio, 3.0 um insert” value is given as 1.44.

As to “AVPVGEKTTYR (listed as Homo sapiens) [tryptic peptide fragment of human p97]”, the “Ablum 120: Area” value came to 0.00E+00 and the “Lum 120: Area” value is recorded as 0.00E+00.

As for “CGDMAVAFR (listed as Homo sapiens) [tryptic peptide fragment of human p97]”, the “Abl 120/Lum120 peak area ratio, 0.4 um insert” value is recorded as 2.26 and the “Abl 120/Lum120 peak area ratio, 3.0 um insert” value is on record as 2.06.

Consider “WCATSDPEQHK (listed as Homo sapiens) [tryptic peptide fragment of human p97]”, for which the “Abl 120/Lum120 peak area ratio, 0.4 um insert” value is listed as 8.92 and the “Abl 120/Lum120 peak area ratio, 3.0 um insert” value is on record as 7.41.

As to “TVGWNVPVGYLVESGR [tryptic peptide fragment of human p97]”, the “Ablum 120: Area” value by setting is: under setting [1], 0.00E+00; under setting [2], 1.38E+07. The “Lum 120: Area” value was found to be 9.38E+07 under setting [3] and 1.01E+08 under setting [4].

On to “ADVTEWR (listed as Homo sapiens) [tryptic peptide fragment of human p97]”, for which the “Abl 120/Lum120 peak area ratio, 0.4 um insert” value is given as 12.76 and the “Abl 120/Lum120 peak area ratio, 3.0 um insert” value is reported as 11.26.

With “LKPEIQCVSAK (listed as Homo sapiens) [tryptic peptide fragment of human p97]”, the “Abl 120/Lum120 peak area ratio, 0.4 um insert” value stood at 4.81 and the “Abl 120/Lum120 peak area ratio, 3.0 um insert” value amounted to 4.37.

For “CLVENAGDVAFVR (listed as Homo sapiens) [tryptic peptide fragment of human p97]”, the “Ablum 120: Area” value is 1.30E+08 and the “Lum 120: Area” value came to 5.49E+08.

For “CGNMSEAFR (listed as Homo sapiens) [tryptic peptide fragment of human p97]”, the “Ablum 120: Area” value was determined as 2.53E+07 and the “Lum 120: Area” value worked out at 0.00E+00.

Consider “DSSHAFTLDELRGK [tryptic peptide fragment of human p97]”, for which the “Ablum 120: Area” value is, setting by setting: under setting [1], 1.99E+07; under setting [2], 2.37E+07. Also, the “Lum 120: Area” value turned out to be 0.00E+00 under setting [3] and 0.00E+00 under setting [4].

With “SEDYELLCPNGAR (listed as Homo sapiens) [tryptic peptide fragment of human p97]”, the “Abl 120/Lum120 peak area ratio, 0.4 um insert” value is given as 13.05 and the “Abl 120/Lum120 peak area ratio, 3.0 um insert” value is on record as 8.38.

“IQAEQVDAVTLSGEDIYTAGK [tryptic peptide fragment of human p97]”: the “Ablum 120: Area” value under setting [1] is listed as 0.00E+00 and the “Ablum 120: Area” value under setting [2] came to 0.00E+00. Further, the “Lum 120: Area” value under setting [3] is given as 3.48E+06.

As to “AVSDYFGGSCVPGAGETSYSESLCR [tryptic peptide fragment of human p97]”, the “Ablum 120: Area” value is, setting by setting: under setting [1], 5.49E+08; under setting [2], 7.98E+08. Also, the “Lum 120: Area” value reads like this: under setting [3], 5.51E+09; under setting [4], 5.03E+09.

As for “NYPSSLCALCVGDEQGR [tryptic peptide fragment of human p97]”, the “Ablum 120: Area” value worked out at 7.34E+07 under setting [1] and 1.09E+08 under setting [2]. Besides, the “Lum 120: Area” value came out at 6.15E+08 under setting [3] and 5.52E+08 under setting [4].

Take “MFDSSNYHGQDLLFKDATVR [tryptic peptide fragment of human p97]”: the “Ablum 120: Area” value under setting [2] was 0.00E+00. Also, the “Lum 120: Area” value under setting [4] was determined as 0.00E+00.

For “LCRGDSSGEGVCDK [tryptic peptide fragment of human p97]”, the “Ablum 120: Area” value is 2.64E+05 under setting [1] and 5.97E+05 under setting [2]. For the same substance, the “Abl 120/Lum120 peak area ratio, 0.4 um insert” value under setting [5] amounted to 2.45. Besides, the “Abl 120/Lum120 peak area ratio, 3.0 um insert” value under setting [6] was determined as 1.21. Moreover, the “Lum 120: Area” value runs as follows: under setting [3], 2.17E+05; under setting [4], 2.44E+05.

As to “AQDLFGDDHNKNGFK [tryptic peptide fragment of human p97]”, the “Abl 120/Lum120 peak area ratio, 0.4 um insert” value under setting [5] worked out at 5.45. In addition, the “Abl 120/Lum120 peak area ratio, 3.0 um insert” value under setting [6] is given as 1.68.

In the case of “YYDYSGAFR (listed as Homo sapiens) [tryptic peptide fragment of human p97]”, the “Abl 120/Lum120 peak area ratio, 0.4 um insert” value amounted to 7.40.

For “DSSHAFTLDELR (listed as Homo sapiens) [tryptic peptide fragment of human p97]”, the “Abl 120/Lum120 peak area ratio, 0.4 um insert” value was 0.98.

“ADTDGGLIFRLLNEGQR [tryptic peptide fragment of human p97]”: the “Ablum 120: Area” value reads like this: under setting [1], 0.00E+00; under setting [2], 5.53E+06. Further, the “Lum 120: Area” value is reported as 3.69E+07 under setting [3] and 3.36E+07 under setting [4].

As to “SSHVTIDTLKGVK (listed as Homo sapiens) [tryptic peptide fragment of human p97]”, the “Abl 120/Lum120 peak area ratio, 0.4 um insert” value is 2.42 and the “Abl 120/Lum120 peak area ratio, 3.0 um insert” value was found to be 2.38.

Turning to “DLLFKDSTSELVPIATQTYEAWLGHEYLHAMK [tryptic peptide fragment of human p97]”, under setting [2], the “Ablum 120: Area” value stood at 0.00E+00. The “Lum 120: Area” value under setting [4] worked out at 3.76E+07.

“ADVTEWRQCHLAR (listed as Homo sapiens) [tryptic peptide fragment of human p97]”: the “Ablum 120: Area” value came out at 4.26E+06 and the “Lum 120: Area” value is on record as 0.00E+00.

On to “EHGLKPVVGEVYDQEVGTSYYAVAVVRR [tryptic peptide fragment of human p97]”, for which the “Ablum 120: Area” value runs as follows: under setting [1], 1.70E+07; under setting [2], 2.62E+07. Also, the “Lum 120: Area” value is, setting by setting: under setting [3], 0.00E+00; under setting [4], 0.00E+00.

Turning to VPAHAWVR, the “Abl 120/Lum120 peak area ratio, 0.4 um insert” value worked out at 3.32 and the “Abl 120/Lum120 peak area ratio, 3.0 um insert” value is reported as 3.56.

Consider “WCVLSTPEIQK (listed as Homo sapiens) [tryptic peptide fragment of human p97]”, for which the “Lum 120: Area” value is given as 0.00E+00.

As to “GDSSGEGVCDKSPLER [tryptic peptide fragment of human p97]”, the “Ablum 120: Area” value runs as follows: under setting [1], 1.93E+09; under setting [2], 2.34E+09. In addition, the “Abl 120/Lum120 peak area ratio, 0.4 um insert” value under setting [5] was 4.93. The “Abl 120/Lum120 peak area ratio, 3.0 um insert” value under setting [6] was 3.80. Besides, the “Lum 120: Area” value amounted to 5.08E+08 under setting [3] and 4.75E+08 under setting [4].

Values taken from patent publication US9364567B2, “Fragments of p97 and uses thereof” (biOasis Technologies, Inc., priority 2013, dated 2016).
